Test results: US20260256933A1, “METHOD FOR TREATING CANCER VIA ANTI-B7H3 ANTIBODY-DRUG CONJUGATE” (MediLink Therapeutics (Suzhou) Co., Ltd., priority 2023, published 2026)

Experiments:
[1] = system: recurrent or malignant cervical cancer; conditions: treatment of recurrent or malignant cervical cancer; clinical; cited from earlier work
[2] = system: B-hB7-H3 MC38 transplantation tumours; assay: B-hB7-H3 MC38 transplantation tumour model, ADC1 in combination with anti-PD-L1 drug; assay type: in vivo, C57BL/6 mice; conditions: G4: anti-PD-L1 3 mg/kg i.p. BIW x4
Experimental: MC38 cells (Shunran (Shanghai) Biotechnology Co., Ltd.) were genetically modified to express the human B7H3 genes, thereby obtaining B-hB7-H3 MC38 cells. The cells were subcutaneously inoculated into C57BL/6 mice to establish a B-hB7-H3 MC38 tumour cell transplantation tumour model. When the tumours grew to approximately 140 mm^3, grouping for animal experiments was performed, a control group (G1: 0.9% sodium chloride injection), monotherapy groups (G2: ADC1 10 mg/kg group, G3: ADC1 3 mg/kg group, G4: anti-PD-L1 3 mg/kg group), and combination therapy groups (G5: group with ADC1 10 mg/kg in combination with anti-PD-L1 3 mg/kg, G6: group with ADC1 3 mg/kg in combination with anti-PD-L1 3 mg/kg) were established respectively, with 8 mice in each group. Dosing was performed according to the regimen in Table 1. The anti-PD-L1 drug was atezolizumab (Biocytogen). At the end of the experiment, therapeutic effects were evaluated according to the tumour growth inhibition (TGI), and tolerability was evaluated according to clinical observations, body weight changes, and mortality of the animals.
Note: a: the dosing volume was calculated at […] based on the body weight of the experimental animals, and each drug injection was completed within 10 to 20 seconds. • b: BIW refers to administration twice weekly. When the combined treatment groups were dosed on the same day, there was no required sequence or dosing interval between the two drugs.
Note: a: mean±standard error; b: statistical comparison of the tumour volume in the dosing groups versus the tumour volume in the G1 control group on Day 22 after grouping for dosing, one-way ANOVA analysis and Dunnett's test; ****p<0.0001. c: the tumour clearance proportion was counted according to the results on Day 25.

Substance	ORR [1]	TGITV (%) ([2]; Day 22)	Tumour volume before dosing ([2]; baseline before dosing, mean)	Tumour clearance proportion ([2]; counted on Day 25)	Tumour volume Day 22 after grouping for dosing ([2]; mean)
Tivdak: an ADC drug targeting TF	24%	–	–	–	–
atezolizumab [Anti-PD-L1]	–	22.4%	140 mm3	0/8	1689 mm3
